Data taken from patent US20240197650A1, “Combination of Cinnamaldheyde and Eugenol with Antimycotic Activity” (priority 2021, published 2024).

Key:
[1] = system: L. acidophilus strain La-14; test: Microdilution vs L. acidophilus; type: cell-based, Lactobacillus acidophilus; conditions: for MIC vs L. acidophilus: MRS broth, 37° C. 48 hours, anaerobiosis; for MIC vs L. acidophilus relative to the observed maximum MIC vs Candida spp: maximum MIC in 2 strains out of 18 only
Method: The antibacterial activity of […] eugenol vs L. acidophilus was studied by using the disk diffusion method (reading scheme as reported in FIG. 1) and the microdilution method (reading scheme as reported in FIG. 2). A L. acidophilus strain named La-14 (Danisco SpA, Milan, Italy) was tested. The essential oils (80% oil, 20% DMSO) were dissolved in MRS broth up to a concentration of 8% v/v (so obtaining a final concentration of 4% v/v). In a 96-well microtiter plate, 1⁄2 serial dilutions of the oils were carried out (volume: 100 μl. […] Each well was then injected with 100 μl of the cell suspension. The microtiter plates were incubated at 37° C. for 48 hours in anaerobiosis. MIC was determined as the concentration of the oils in the first well which is not cloudy. The experiment was carried out in duplicate.

[2] = system: C. albicans; test: Disk diffusion method, C. albicans strains; type: cell-based
Method: (§1) A total of eighteen strains belonging to Candida spp. (15 C. albicans, 2 C. glabrata and 1 C. lusitaniae) derived from a collection of vaginal strains isolated in CHROMAgar Candida (BD Italia SpA, Milan, Italy) were grown on Potato Dextrose Agar (Oxoid Thermofisher SpA, Milan, Italy) at 35° C. for 24 hours.
Colonies were re-suspended in sterile saline at a density corresponding to #0.5 McFarland (opacity standard). #0.5 McF correspond to 1.4×10^6 colony forming units (CFU)/ml for C. albicans, 4.3×10^6 CFU/ml for C. glabrata and 3×10^6 CFU/ml for C. lusitaniae [Guinea J. et al., Rapid antifungal susceptibility determination for yeast isolates by use of Etest performed directly on blood samples from patients with fungemia, J Clin Microbiol. 2010 June, 48(6): 2205-12]. Then, the sensitivity test vs the two oils has been performed. The disk diffusion method was carried out as follows: for each tested strain, 4 plates of Potato Dextrose Agar (PDA) were seeded in 3 directions to produce a confluent growth, by sterile swab soaked in the cell suspension. Sorbent paper disks (Oxoid Thermofisher SpA, Milan, Italy) 6.0 mm diameter were placed on the agar surface and added with 10 μl of each essential oil. Disks soaked with 10 μg amphotericin B were used as positive control. Also disks of chlortrimazole (from 10 μg to 40 μg) were used, but the inhibition rings could not be clearly read due to the formation of a re-growth ring. Disks soaked with 10 μl pure dimethylsulphoxide (DMSO, Sigma-Aldrich, St. Louis, MO, USA) were used as negative control. The plates were incubated at 35° C. for 24 hours. All the experiments were carried out in duplicate. The inhibiting effect of the oils were considered to be effective when the inhibition ring was equal or greater than that caused by amphotericin B. For amphotericin B, an inhibition zone (IZ)≥15 mm was considered as “sensitivity”, from 10 to 14 mm as “intermediate sensitivity” and <10 mm as “resistance” [Kauser et al., Agreement of Direct Antifungal Susceptibility Testing from Positive Blood Culture Bottles with Conventional Method for Candida Species, J Clin Microbiol. 2016 February, 54(2):343-34].

[3] = system: C. glabrata; test: Microdilution method MIC/MFC, C. glabrata strains; type: cell-based
Method: as §1
The antifungal activity of amphotericin B and of cinnamaldheyde and eugenol were tested with the microdilution method as reported by Bona et al. [Bona et al., Sensitivity of Candida albicans to essential oils: are they an alternative to antifungal agents? J Appl Microbiol. 2016 December, 121(6): 1530-1545] with small changes. All the 18 Candida spp strains were tested. For each isolated, the colonies deriving from cultures (24 hours) in PDA were diluted in saline up to a concentration of 2×10^3 CFU/ml (so obtaining a final concentration of 10 3CGU/ml). Cinnamaldehyde and eugenol were dissolved in DMSO (80% oil, 20% DMSO), then diluted in Sabouraud broth up to a concentration of 8% v/v (so obtaining a final concentration of 4% v/v). Then, in a 96-well microtiter plate ½ serial dilution of amphotericin B (range 32-0.032 μg/ml, for a final range of 16-0.016 μg/ml) and of the essential oils (range 8-0.004% v/v, for a final range of 4-0.002% v/v) were carried out. Each well was then injected with 100 μl of cell suspension. The negative control contained DMSO diluted in Sabouraud broth (at 2% v/v, for a final concentration of 1% v/v). […] Each experiment was carried out in duplicate. The Minimum Inhibitory Concentration (MIC) was determined as the concentration of the oils in the first well which is not cloudy. The Minimum Fungicidal Concentration (MFC) was determined as the lowest concentration of the oils, with the agar culture showing the complete absence of fungal growth. The determination of the amphotericin B MIC was carried out also according to the EUCAST guidelines (cutoff 1 μg/ml) [https://eucast.org/astoffungi/clinicalbreakpointsforantifungals], all the results being consistent.

[4] = system: C. albicans strain (C.a. 15); test: Time-kill curve; type: cell-based; conditions: oil at its MFC, 2×10^5 CFU/ml C.a. 15, 35° C.
Method: A C. albicans strain (C.a. 15) was incubated with cinnamaldheyde and eugenol at their MFC. The C. albicans colonies were suspended in Sabouraud broth at a density corresponding to #1.4 McFarland (4×10^6 CFU/ml), then diluted 1/10 (4×10^5 CFU/ml, for a final concentration of 2×10^5 CFU/ml). The suspension was divided into aliquots, two aliquots were incubated with the oils (½ v/v) prepared at a concentration double of their MFC (for a final concentration equal to MFC); the third aliquot was diluted ½ with Sabouraud broth and was used as negative control. The mixtures were incubated at 35° C. on swinging plate. At T0, T1 h, T2 h, T4 h, T6 h, T8 h, T12 h and T24 h, 1/10 serial dilutions were carried out, to determine the total vital count (TVC). From each dilution, 100 μl were seeded in PDA and incubated at 35° C. for 24 hours, then the colonies were counted, their number expressed as CFU/ml. The test was carried out in duplicate.

SMILES	MIC vs L. acidophilus relative to the average MIC vs Candida spp [1]	MIC vs L. acidophilus [1] [% v/v]	MIC vs L. acidophilus relative to the observed maximum MIC vs Candida spp [1]	Diameters of the inhibition rings (including 6.0 mm of the disk) ([2]; C. albicans 1) [mm]	Diameters of the inhibition rings (including 6.0 mm of the disk) ([2]; C. albicans 2) [mm]	Diameters of the inhibition rings (including 6.0 mm of the disk) ([2]; C. albicans 3) [mm]	Diameters of the inhibition rings (including 6.0 mm of the disk) ([2]; C. albicans 4) [mm]	Diameters of the inhibition rings (including 6.0 mm of the disk) ([2]; C. albicans 5) [mm]	Diameters of the inhibition rings (including 6.0 mm of the disk) ([2]; C. albicans 6) [mm]	Diameters of the inhibition rings (including 6.0 mm of the disk) ([2]; C. albicans 7) [mm]	Diameters of the inhibition rings (including 6.0 mm of the disk) ([2]; C. albicans 8) [mm]	Diameters of the inhibition rings (including 6.0 mm of the disk) ([2]; C. albicans 9) [mm]	Diameters of the inhibition rings (including 6.0 mm of the disk) ([2]; C. albicans 10) [mm]	Diameters of the inhibition rings (including 6.0 mm of the disk) ([2]; C. albicans 11) [mm]	Diameters of the inhibition rings (including 6.0 mm of the disk) ([2]; C. albicans 12) [mm]	Diameters of the inhibition rings (including 6.0 mm of the disk) ([2]; C. albicans 13) [mm]	Diameters of the inhibition rings (including 6.0 mm of the disk) ([2]; C. albicans 14) [mm]	Diameters of the inhibition rings (including 6.0 mm of the disk) ([2]; C. albicans 15) [mm]	MFC ([3]; C. glabrata 1) [% v/v]	MIC ([3]; C. glabrata 1) [% v/v]	further results
O=CC=Cc1ccccc1 [Cinnamaldheyde, cinnamaldehyde]	about 6.7 fold	0.032	double	65.0	70.0	67.0	66.0	71.0	67.0	75.0	67.0	70.5	72.5	75.0	75.0	71.0	75.0	70.0	0.008	0.004	MFC ([3]; C. glabrata 2): 0.016 % v/v; MIC ([3]; C. glabrata 2): 0.016 % v/v
C=CCc1ccc(O)c(OC)c1 [Eugenol, eugenol]	about 6 fold	0.25	double	35.0	35.0	33.0	35.0	35.0	36.0	44.0	41.0	34.0	34.5	34.0	34.0	35.0	34.0	34.0	0.032	0.032	time to kill all the fungal cells [4]: within the first hour; time to kill all the fungal cells ([4]; listed as eugenol): 1 h; MFC ([3]; C. glabrata 2): 0.125 % v/v; MIC ([3]; C. glabrata 2): 0.125 % v/v
